Test system: NCI-H1341 complex spheroids, percent test/control
Test: Anticancer human tumor NCI-H1341 cell line growth inhibition [AhR];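 note: spheroids exposed to agents for seven days before readout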
Conditions: for IC50: curve of first compound; for viability, T/C: stronger effect = lower value
Summary of the method: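 Agents were dosed in half-log steps down from roughly clinical Cmax, or from 10 microM where Cmax was unknown, alone and with AhR antagonists. Read-out: percent test/control growth of tumor spheroids containing HUVEC and MSC stromal cells.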

[1] = second compound 0.1 µM, first compound 0.00949 µM
[2] = second compound 0.1 µM, first compound 0.03 µM
[3] = second compound 0.1 µM, first compound 0.0949 µM
[4] = second compound 0.1 µM, first compound 0.3 µM
[5] = second compound 0.316 µM, first compound 0.00949 µM
[6] = second compound 0.316 µM, first compound 0.03 µM
[7] = second compound 0.316 µM, first compound 0.0949 µM
[8] = second compound 0.316 µM, first compound 0.3 µM
[9] = second compound 1 µM, first compound 0.00949 µM
[10] = second compound 1 µM, first compound 0.03 µM
[11] = second compound 1 µM, first compound 0.0949 µM
[12] = second compound 1 µM, first compound 0.3 µM
[13] = second compound 3.16 µM, first compound 0.00949 µM
[14] = second compound 3.16 µM, first compound 0.03 µM
[15] = second compound 3.16 µM, first compound 0.0949 µM
[16] = second compound 3.16 µM, first compound 0.3 µM
[17] = second compound 10 µM, first compound 0.00949 µM
[18] = second compound 10 µM, first compound 0.03 µM
[19] = second compound 10 µM, first compound 0.0949 µM
[20] = second compound 10 µM, first compound 0.3 µM

Q: How did the IC50 (second compound 0.1 µM) turn out when `Nc1ncn(C2CC(O)C(CO)S2)c(=O)n1` (stereo not given) + CC(CO)NC(=O)c1cc(-c2ccc(Cl)cc2)nn(-c2cnn(C)c2)c1=O was run?
A: Its IC50 is 271 nM.

Q: And the IC50 (second compound 0.316 µM)?
A: Its IC50 is 220 nM.

Q: What about the IC50 (second compound 1 µM) of the same molecule?
A: The IC50 was 223 nM.

Q: What about the IC50 (second compound 3.16 µM) of the same molecule?
A: Its IC50 is 214 nM.

Q: And the IC50 (second compound 10 µM)?
A: The IC50 was 234 nM.

Q: And the viability, T/C (second compound 0.1 µM, first compound 0.000949 µM)?
A: Its viability, T/C is 89.1%.

Q: What about the viability, T/C (second compound 0.1 µM, first compound 0.003 µM) of the same molecule?
A: Its viability, T/C is 94.3%.

Q: And the viability, T/C [1]?
A: Its viability, T/C is 91.2%.

Q: And the viability, T/C [2]?
A: Its viability, T/C is 89.3%.

Q: What about the viability, T/C [3] of the same molecule?
A: Its viability, T/C is 63.6%.

Q: And the viability, T/C [4]?
A: Its viability, T/C is 48.7%.

Q: And the viability, T/C (second compound 0.316 µM, first compound 0.000949 µM)?
A: The viability, T/C was 94.6%.

Q: And the viability, T/C (second compound 0.316 µM, first compound 0.003 µM)?
A: Its viability, T/C is 91.5%.

Q: What about the viability, T/C [5] of the same molecule?
A: The viability, T/C was 84.5%.

Q: What about the viability, T/C [6] of the same molecule?
A: The viability, T/C was 89.8%.

Q: And the viability, T/C [7]?
A: Its viability, T/C is 78.3%.

Q: What about the viability, T/C [8] of the same molecule?
A: The viability, T/C was 39.2%.

Q: What about the viability, T/C (second compound 1 µM, first compound 0.000949 µM) of the same molecule?
A: Its viability, T/C is 75.3%.

Q: What about the viability, T/C (second compound 1 µM, first compound 0.003 µM) of the same molecule?
A: Its viability, T/C is 105%.

Q: And the viability, T/C [9]?
A: The viability, T/C was 91.8%.

Q: And the viability, T/C [10]?
A: The viability, T/C was 79.6%.

Q: What about the viability, T/C [11] of the same molecule?
A: The viability, T/C was 76.2%.

Q: What about the viability, T/C [12] of the same molecule?
A: Its viability, T/C is 41.3%.

Q: What about the viability, T/C (second compound 3.16 µM, first compound 0.000949 µM) of the same molecule?
A: Its viability, T/C is 86%.

Q: What about the viability, T/C (second compound 3.16 µM, first compound 0.003 µM) of the same molecule?
A: The viability, T/C was 96.1%.

Q: What about the viability, T/C [13] of the same molecule?
A: The viability, T/C was 85.6%.

Q: And the viability, T/C [14]?
A: The viability, T/C was 82.7%.

Q: What about the viability, T/C [15] of the same molecule?
A: The viability, T/C was 69.2%.

Q: And the viability, T/C [16]?
A: The viability, T/C was 42%.

Q: And the viability, T/C (second compound 10 µM, first compound 0.000949 µM)?
A: The viability, T/C was 73.3%.

Q: And the viability, T/C (second compound 10 µM, first compound 0.003 µM)?
A: The viability, T/C was 73.1%.

Q: And the viability, T/C [17]?
A: The viability, T/C was 79.1%.

Q: What about the viability, T/C [18] of the same molecule?
A: The viability, T/C was 69.2%.

Q: And the viability, T/C [19]?
A: The viability, T/C was 63.6%.

Q: What about the viability, T/C [20] of the same molecule?
A: Its viability, T/C is 46%.

Q: What does the source list for `O=C(C=Cn1cnc(-c2cc(C(F)(F)F)cc(C(F)(F)F)c2)n1)NNc1cnccn1` + CC(CO)NC(=O)c1cc(-c2ccc(Cl)cc2)nn(-c2cnn(C)c2)c1=O?
A: IC50 (second compound 0.1 µM): 47.3 nM; IC50 (second compound 0.316 µM): 38.7 nM; IC50 (second compound 1 µM): 53.4 nM; IC50 (second compound 3.16 µM): 39.2 nM; IC50 (second compound 10 µM): 32.2 nM; viability, T/C [1]: 70.1%; viability, T/C [2]: 66%; viability, T/C [3]: 25.8%; viability, T/C [4]: 8.14%; viability, T/C (second compound 0.1 µM, first compound 0.949 µM): 7.31%; viability, T/C (second compound 0.1 µM, first compound 3 µM): 3.24%; viability, T/C [5]: 81.5%; viability, T/C [6]: 56.4%; viability, T/C [7]: 26.9%; viability, T/C [8]: 8.82%; viability, T/C (second compound 0.316 µM, first compound 0.949 µM): 4.72%; viability, T/C (second compound 0.316 µM, first compound 3 µM): 3.56%; viability, T/C [9]: 72.9%; viability, T/C [10]: 76.5%; viability, T/C [11]: 25.3%; viability, T/C [12]: 7.32%; viability, T/C (second compound 1 µM, first compound 0.949 µM): 5.36%; viability, T/C (second compound 1 µM, first compound 3 µM): 3.2%; viability, T/C [13]: 70.9%; viability, T/C [14]: 56.6%; viability, T/C [15]: 27.3%; viability, T/C [16]: 7.55%; viability, T/C (second compound 3.16 µM, first compound 0.949 µM): 4.07%; viability, T/C (second compound 3.16 µM, first compound 3 µM): 4.94%; viability, T/C [17]: 62.8%; viability, T/C [18]: 51%; viability, T/C [19]: 27.2%; viability, T/C [20]: 8.24%; viability, T/C (second compound 10 µM, first compound 0.949 µM): 5.11%; viability, T/C (second compound 10 µM, first compound 3 µM): 4.13%

Reference: PubChem BioAssay AID1919014 (Molecular Pharmacology Branch, DTP, NCI, 2023)
